biological target: CDK2/Cyclin E1 (Homo sapiens (Human), UniProt P24941); assay: CDK2/Cyclin E1 HTRF enzyme activity assay (Example A); type: biochemical; settings: 1 mM ATP
Description: Assays were conducted in white 384-well polystyrene plates in a final reaction volume of 8 μL. […] HTRF signals were read after 1 hour at room temperature on a PHERAstar FS plate reader (BMG Labtech). Data was analyzed with IDBS XLFit and GraphPad Prism 5.0 software using a three or four parameter dose response curve to determine IC50 for each compound.

IC50, ≤ 0.05 µM:
CCNCc1ccc(-n2cnc(-c3nc(NC4CCN(S(C)(=O)=O)CC4)ncc3C(F)(F)F)c2)c(C#N)c1 [Example 341, 5-((Ethylamino)methyl)-2-(4-(2-((1-(methylsulfonyl)piperidin-yl)amino)-5-(trifluoromethyl)pyrimidin-4-yl)-1H-imidazol-1-yl)benzonitrile]
COc1ccc(-n2cnc(-c3nc(NC4CCN(S(C)(=O)=O)CC4)ncc3C(F)(F)F)c2)c(C#N)n1 [Example 39, 6-Methoxy-3-(4-(2-((1-(methylsulfonyl)piperidin-4-yl)amino)-5-(trifluoromethyl)pyrimidin-4-yl)-1H-imidazol-1-yl)picolinonitrile]
CS(=O)(=O)N1CCC(Nc2ncc(C(F)(F)F)c(-c3cn(-c4ccccc4C#N)cn3)n2)CC1 [Example 31, 2-(4-(2-((1-(Methylsulfonyl)piperidin-4-yl)amino)-5-(trifluoromethyl)pyrimidin-4-yl)-1H-imidazol-1-yl)benzonitrile]
Cc1c(-n2cnc(-c3nc(NC4CCN(S(C)(=O)=O)CC4)ncc3C(F)(F)F)c2)ccc2nccnc12 [Example 166, 4-(1-(5-Methylquinoxalin-6-yl)-1H-imidazol-4-yl)-N-(1-(methylsulfonyl)piperidin-4-yl)-5-(trifluoromethyl)pyrimidin-2-amine]
C[C@@H]1CN(S(=O)(=O)C2CC2)CC[C@@H]1Nc1ncc(C(F)(F)F)c(-c2cn(-c3ccc(CN(C)C)cc3Cl)cn2)n1 [Example 222, 4-(1-(2-Chloro-4-((dimethylamino)-methyl)phenyl)-1H-imidazol-4-yl)-N-((3R,4S)-1-(cyclo-propylsulfonyl)-3-methylpiperidin-4-yl)-5-(trifluoro-methyl)pyrimidin-2-amine]
CS(=O)(=O)N1CCC(Nc2ncc(C(F)(F)F)c(-c3cn(-c4cccnc4C#N)cn3)n2)CC1 [Example 34, 3-(4-(2-((1-(Methylsulfonyl)piperidin-4-yl)amino)-5-(trifluoromethyl)pyrimidin-4-yl)-1H-imidazol-1-yl)picolinonitrile]
CC1(O)CN(Cc2cccc(-n3cnc(-c4nc(NC5CCN(S(C)(=O)=O)CC5)ncc4C(F)(F)F)c3)c2C(F)(F)F)C1 [Example 379, 3-Methyl-1-(3-(4-(2-((1-(methylsulfonyl)piperidin-4-yl)amino)-5-(trifluoromethyl)pyrimi-din-4-yl)-1H-imidazol-1-yl)-2-(trifluoromethyl)benzyl) azetidin-3-ol]
Cc1ccc(-n2cnc(-c3nc(N[C@H]4CCN(S(C)(=O)=O)C[C@H]4F)ncc3C(F)(F)F)c2)c(C(F)(F)F)n1 [Example 46, N-((3R,4S)-3-Fluoro-1-(methylsulfonyl)piperidin-4-yl)-4-(1-(6-methyl-2-(trifluoromethyl)pyridin-3-yl)-1H-imidazol-4-yl)-5-(trifluoromethyl)pyrimidin-2-amine]
Cc1nc(-c2nc(NC3CCN(S(C)(=O)=O)CC3)ncc2C(F)(F)F)cn1-c1ccc(N2CCC[C@H](N(C)C)C2)cc1F [Example 106, (S)-4-(1-(4-(3-(Dimethylamino)-piperidin-1-yl)-2-fluorophenyl)-2-methyl-1H-imidazol-4-yl)-N-(1-(methyl-sulfonyl)piperidin-4-yl)-5-(trifluoro-methyl)pyrimidin-2-amine]
CS(=O)(=O)N1CCC(Nc2ncc(C(F)(F)F)c(-c3cn(-c4ccc(Cn5cncn5)cc4Cl)cn3)n2)CC1 [Example 240, 4-(1-(4-((1H-1,2,4-Triazol-1-yl)methyl)-2-chlorophenyl)-1H-imidazol-4-yl)-N-(1-(methylsulfonyl)piperidin-4-yl)-5-(trifluoromethyl)pyrimidin-2-amine]
Cc1nc(C(N)=O)ccc1-n1cnc(-c2nc(NC3CCN(S(C)(=O)=O)CC3)ncc2C(F)(F)F)c1 [Example 130, 6-Methyl-5-(4-(2-((1-(methylsulfonyl)piperidin-4-yl)amino)-5-(trifluoromethyl)pyrimidin-4-yl)-1H-imidazol-1-yl)picolinamide]
Cn1cc(S(=O)(=O)N2CCC(Nc3ncc(C(F)(F)F)c(-c4cn(CC(F)F)cn4)n3)CC2)cn1 [Example 334, 4-(1-(2,2-Difluoroethyl)-1H-imidazol-4-yl)-N-(1-((1-methyl-1H-pyrazol-4-yl)sulfonyl)piperidin-4-yl)-5-(trifluoromethyl)pyrimidin-2-amine]
CS(=O)(=O)N1CC[C@H](Nc2ncc(C(F)(F)F)c(-c3cn(-c4ccc(C(F)(F)F)cc4C#N)cn3)n2)[C@H](F)C1 [Example 68, 2-(4-(2-(((3R,4S)-3-Fluoro-1-(methylsulfonyl)piperidin-4-yl)amino)-5-(trifluoromethyl)pyrimidin-4-yl)-1H-imidazol-1-yl)-5-(trifluoromethyl)benzonitrile]
CNC(C)c1cccc(-n2cnc(-c3nc(NC4CCN(S(C)(=O)=O)CC4)ncc3C(F)(F)F)c2)c1Cl (centres unmarked) [Example 377, 4-(1-(2-Chloro-3-(1-(methylamino)ethyl)phe-nyl)-1H-imidazol-4-yl)-N-(1-(methylsulfonyl)piperidin-4-yl)-5-(trifluoromethyl)pyrimi-din-2-amine]
COCCNc1ccc(-n2cc(-c3nc(NC4CCN(S(C)(=O)=O)CC4)ncc3C(F)(F)F)nc2C)c(F)c1 [Example 112, 4-(1-(2-Fluoro-4-((2-methoxyethyl)-amino)phenyl)-2-methyl-1H-imidazol-4-yl)-N-(1-(methyl-sulfonyl)piperidin-4-yl)-5-(trifluoro-methyl)pyrimidin-2-amine]
CS(=O)(=O)N1CCC(Nc2ncc(C(F)(F)F)c(-c3cn(-c4cccc(CO)c4Cl)cn3)n2)CC1 [Example 84, (2-Chloro-3-(4-(2-((1-(methylsulfonyl)piperidin-4-yl)amino)-5-(trifluoromethyl)pyrimidin-4-yl)-1H-imidazol-1-yl)phenyl)methanol]
Cc1nc(-c2nc(NC3CCN(S(C)(=O)=O)CC3)ncc2C(F)(F)F)cn1-c1ccc(N2CC[C@@H](N(C)C)C2)cc1F [Example 109, (R)-4-(1-(4-(3-(Dimethylamino)-pyrrolidin-1-yl)-2-fluorophenyl)-2-methyl-1H-imidazol-4-yl)-N-(1-(methyl-sulfonyl)piperidin-4-yl)-5-(trifluoro-methyl)pyrimidin-2-amine]
CS(=O)(=O)N1CCC(Nc2ncc(C(F)(F)F)c(-c3cn(-c4ccc(N5CCNC(=O)C5)cc4Cl)cn3)n2)CC1 [Example 150, 4-(3-Chloro-4-(4-(2-((1-(methyl-sulfonyl)piperidin-4-yl)amino)-5-(trifluoromethyl)-pyrimidin-4-yl)-1H-imidazol-1-yl)-phenyl)piperazin-2-one]
CNCc1ccc(-n2cnc(-c3nc(N[C@H]4CCN(S(=O)(=O)C5CC5)C[C@H]4C)ncc3C(F)(F)F)c2)c(Cl)c1 [Example 223, 4-(1-(2-Chloro-4-((methylamino)-methyl)phenyl)-1H-imidazol-4-yl)-N-((3R,4S)-1-(cyclo-propylsulfonyl)-3-methylpiperidin-4-yl)-5-(trifluoro-methyl)pyrimidin-2-amine]
Cc1nc(-c2nc(NC3CCN(S(C)(=O)=O)CC3)ncc2C(F)(F)F)cn1-c1ccc(CN(C)C)cc1F [Example 279, 4-(1-(4-((Dimethylamino)methyl)-2-fluorophenyl)-2-methyl-1H-imidazol-4-yl)-N-(1-(methylsulfonyl)piperidin-4-yl)-5-(trifluoromethyl)pyrimidin-2-amine]
Cc1nc(-c2nc(N[C@H]3CCN(S(C)(=O)=O)C[C@H]3F)ncc2C(F)(F)F)cn1-c1ccncc1F [Example 298, N-((3R,4S)-3-Fluoro-1-(methylsulfonyl)piperidin-4-yl)-4-(1-(3-fluoropyridin-4-yl)-2-methyl-1H-imidazol-4-yl)-5-(trifluoromethyl)pyrimidin-2-amine]
C[C@]1(O)CCN(Cc2ccc(-n3cnc(-c4nc(N[C@@H]5CCN(S(C)(=O)=O)C[C@H]5F)ncc4C(F)(F)F)c3)c(Cl)c2)C1 [Example 410, (S)-1-(3-Chloro-4-(4-(2-(((3R,4R)-3-fluoro-1-(methylsulfonyl)piperidin-4-yl)amino)-5-(trifluoromethyl)pyrimidin-4-yl)-1H-imidazol-1-yl)benzyl)-3-methylpyrrolidin-3-ol]
CCNCCc1cccc(-n2cnc(-c3nc(NC4CCN(S(C)(=O)=O)CC4)ncc3C(F)(F)F)c2)c1Cl [Example 466, 4-(1-(2-Chloro-3-(2-(ethylamino)ethyl)phenyl)-1H-imidazol-4-yl)-N-(1-(methylsulfonyl)piperidin-4-yl)-5-(trifluoromethyl)pyrimidin-2-amine]
Cc1nc(-c2nc(NC3CCN(S(C)(=O)=O)CC3)ncc2C(F)(F)F)cn1-c1ccc(C2CN(C)C2)cc1F [Example 417, 4-(1-(2-Fluoro-4-(1-methylazetidin-3-yl)phenyl)-2-methyl-1H-imidazol-4-yl)-N-(1-(methylsulfonyl)piperidin-4-yl)-5-(trifluoromethyl)pyrimidin-2-amine]
CN1CCN(CCc2ccc(-n3cnc(-c4nc(NC5CCN(S(C)(=O)=O)CC5)ncc4C(F)(F)F)c3)c(Cl)c2)CC1=O [Example 159, 4-(3-Chloro-4-(4-(2-((1-(methylsulfonyl)-piperidin-4-yl)-amino)-5-(trifluoro-methyl)pyrimidin-4-yl)-1H-imidazol-1-yl)phenethyl)-1-methylpiperazin-2-one]
Cc1nc(-c2nc(NC3CCN(S(C)(=O)=O)CC3)ncc2C(F)(F)F)cn1-c1ccc(CN2CC(C)C2)cc1F [Example 283, 4-(1-(2-Fluoro-4-((3-methylazetidin-1-yl)methyl)phenyl)-2-methyl-1H-imidazol-4-yl)-N-(1-(methylsulfonyl)piperidin-4-yl)-5-(trifluoromethyl)pyrimidin-2-amine]

Reference: US11427567B2, “Imidazolyl pyrimidinylamine compounds as CDK2 inhibitors” (Incyte Corporation, priority 2019, dated 2022)
